Measured values as given in the NIST ThermoML archive (doi:10.1016/j.jct.2008.12.014).

Conditions: Liquid, Vibrating tube method

CC(C)O [propan-2-ol]
Conditions | mass density [kg/m3]
280.21 K, 117.9 kPa | 797.61
280.21 K, 439.6 kPa | 797.89
280.21 K, 938.7 kPa | 798.29
280.21 K, 1328.4 kPa | 798.62
280.21 K, 1656.6 kPa | 798.89
280.21 K, 1944.9 kPa | 799.14
280.21 K, 2440.6 kPa | 799.56
280.21 K, 2850.6 kPa | 799.88
280.21 K, 3198 kPa | 800.17
280.21 K, 3679.1 kPa | 800.56
280.21 K, 4071.1 kPa | 800.9
280.21 K, 4437.7 kPa | 801.19
280.21 K, 4832.6 kPa | 801.5
280.21 K, 5182.1 kPa | 801.8
280.21 K, 5559.1 kPa | 802.1
280.21 K, 5910 kPa | 802.39
280.21 K, 6334.9 kPa | 802.73
280.21 K, 6750.9 kPa | 803.06
280.21 K, 7592 kPa | 803.74
280.21 K, 7999 kPa | 804.07
280.21 K, 8329 kPa | 804.33
280.21 K, 8817 kPa | 804.7
280.21 K, 9350.6 kPa | 805.11
280.21 K, 9658.5 kPa | 805.38
281.21 K, 7166.5 kPa | 803.39
300.09 K, 186.7 kPa | 780.22
300.09 K, 610.5 kPa | 780.62
300.09 K, 953.4 kPa | 780.94
300.09 K, 1339.5 kPa | 781.31
300.09 K, 1722.1 kPa | 781.66
300.09 K, 2044.8 kPa | 781.96
300.09 K, 2446.4 kPa | 782.34
300.09 K, 2834.6 kPa | 782.7
300.09 K, 3224.9 kPa | 783.06
300.09 K, 3671.1 kPa | 783.47
300.09 K, 4074.1 kPa | 783.84
300.09 K, 4362.5 kPa | 784.11
300.09 K, 4771.8 kPa | 784.48
300.09 K, 5226.5 kPa | 784.89
300.09 K, 5579.2 kPa | 785.21
300.09 K, 6001.6 kPa | 785.59
300.09 K, 6427.2 kPa | 785.98
300.09 K, 6780.3 kPa | 786.29
300.09 K, 7214.7 kPa | 786.68
300.09 K, 7629.9 kPa | 787.05
300.09 K, 8020.3 kPa | 787.4
300.09 K, 8417.5 kPa | 787.75
300.09 K, 8805.7 kPa | 788.1
300.09 K, 9212.9 kPa | 788.45
300.09 K, 9621.5 kPa | 788.81
325.12 K, 202.7 kPa | 757.05
325.12 K, 609.4 kPa | 757.49
325.12 K, 960 kPa | 757.87
325.12 K, 1253.9 kPa | 758.21
325.12 K, 1638.8 kPa | 758.63
325.12 K, 2021 kPa | 759.06
325.12 K, 2328.8 kPa | 759.39
325.12 K, 3014.9 kPa | 760.15
325.12 K, 3321.4 kPa | 760.48
325.12 K, 3659.4 kPa | 760.85
325.12 K, 4004.1 kPa | 761.22
325.12 K, 4399.2 kPa | 761.65
325.12 K, 4691.2 kPa | 761.97
325.12 K, 5010.7 kPa | 762.32
325.12 K, 5383.4 kPa | 762.71
325.12 K, 5730.5 kPa | 763.08
325.12 K, 6143.6 kPa | 763.52
325.12 K, 6525.6 kPa | 763.91
325.12 K, 6903.2 kPa | 764.31
325.12 K, 7293.8 kPa | 764.72
325.12 K, 7661.9 kPa | 765.11
325.12 K, 7918.6 kPa | 765.38
325.12 K, 8254.4 kPa | 765.72
325.12 K, 8755.5 kPa | 766.24
325.15 K, 2655.8 kPa | 759.75
350.14 K, 220.4 kPa | 731.92
350.14 K, 663.4 kPa | 732.49
350.14 K, 1071.2 kPa | 733.03
350.14 K, 1412.6 kPa | 733.49
350.14 K, 1844.7 kPa | 734.07
350.14 K, 2226.7 kPa | 734.58
350.14 K, 2644.7 kPa | 735.11
350.14 K, 2842.7 kPa | 735.41
350.14 K, 3286.9 kPa | 735.99
350.14 K, 3630.7 kPa | 736.45
350.14 K, 4012.2 kPa | 736.94
350.14 K, 4394.6 kPa | 737.43
350.14 K, 4757.6 kPa | 737.91
350.14 K, 5197.9 kPa | 738.48
350.14 K, 5577.9 kPa | 738.96
350.14 K, 5939.3 kPa | 739.42
350.14 K, 6321.3 kPa | 739.89
350.14 K, 6730.9 kPa | 740.41
350.14 K, 7119.7 kPa | 740.89
350.14 K, 7564.4 kPa | 741.45
350.14 K, 7988.5 kPa | 741.97
350.14 K, 8472.5 kPa | 742.55
350.14 K, 8925.8 kPa | 743.13
350.14 K, 9280.8 kPa | 743.56
350.14 K, 9676.3 kPa | 744.05
375.01 K, 349.5 kPa | 702.23
375.01 K, 703.3 kPa | 702.82
375.01 K, 1046.8 kPa | 703.38
375.01 K, 1437.5 kPa | 704.01
375.01 K, 1791.6 kPa | 704.58
375.01 K, 2161.7 kPa | 705.16
375.01 K, 2545.7 kPa | 705.76
375.01 K, 2909.9 kPa | 706.34
375.01 K, 3364.1 kPa | 707.04
375.01 K, 3677.6 kPa | 707.53
375.01 K, 4083.2 kPa | 708.16
375.01 K, 4515.7 kPa | 708.82
375.01 K, 4853.5 kPa | 709.33
375.01 K, 5280.2 kPa | 709.98
375.01 K, 5646.9 kPa | 710.53
375.01 K, 6138.1 kPa | 711.26
375.01 K, 6447.1 kPa | 711.73
375.01 K, 6880.9 kPa | 712.37
375.01 K, 7269.8 kPa | 712.94
375.01 K, 7772.4 kPa | 713.68
375.01 K, 8119.2 kPa | 714.18
375.01 K, 8557.2 kPa | 714.81
375.01 K, 8987.3 kPa | 715.42
375.01 K, 9423.8 kPa | 716.04
375.01 K, 9842.2 kPa | 716.64
392.57 K, 407.6 kPa | 679.26
392.57 K, 888.7 kPa | 680.18
392.57 K, 1171.4 kPa | 680.72
392.57 K, 1526.6 kPa | 681.39
392.57 K, 1897.4 kPa | 682.08
392.57 K, 2272.3 kPa | 682.77
392.57 K, 2619.1 kPa | 683.41
392.57 K, 3050.4 kPa | 684.2
392.57 K, 3411.2 kPa | 684.86
392.57 K, 3835 kPa | 685.63
392.57 K, 4095.7 kPa | 686.12
392.57 K, 4524.9 kPa | 686.89
392.57 K, 4902.8 kPa | 687.57
392.57 K, 5283.5 kPa | 688.24
392.57 K, 5775.9 kPa | 689.09
392.57 K, 6039.6 kPa | 689.55
392.57 K, 6476.6 kPa | 690.3
392.57 K, 6889.7 kPa | 691.01
392.57 K, 7348 kPa | 691.78
392.57 K, 7728 kPa | 692.42
392.57 K, 8172.7 kPa | 693.17
392.57 K, 8598.3 kPa | 693.88
392.57 K, 9018.5 kPa | 694.57
392.57 K, 9405 kPa | 695.2
392.57 K, 9837.9 kPa | 695.89
